One assay deals with T1, human recombinant HDAC1 (Homo sapiens, UniProt Q13547).
T1 construct: purchased Enzo Life Science, Inc. BML-SE456
Briefly: HDAC1 enzyme activity inhibition (HDAC Fluorimetric Drug Discovery Kit). It is filed as biochemical. The settings on record: read-out: HDAC1. The essentials:
(§1)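 Fluorimetric deacetylase read-out. 5-fold compound dilutions; […] enzyme, 10 μM substrate; 30° C, 60 min; developer 30 min.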

For the next assay, the target named is T2, human recombinant HDAC6 (Homo sapiens, UniProt Q9UBN7).
T2 construct: purchased Calbiochem Inc. 382180
T2 sequence (Q9UBN7 1-1215): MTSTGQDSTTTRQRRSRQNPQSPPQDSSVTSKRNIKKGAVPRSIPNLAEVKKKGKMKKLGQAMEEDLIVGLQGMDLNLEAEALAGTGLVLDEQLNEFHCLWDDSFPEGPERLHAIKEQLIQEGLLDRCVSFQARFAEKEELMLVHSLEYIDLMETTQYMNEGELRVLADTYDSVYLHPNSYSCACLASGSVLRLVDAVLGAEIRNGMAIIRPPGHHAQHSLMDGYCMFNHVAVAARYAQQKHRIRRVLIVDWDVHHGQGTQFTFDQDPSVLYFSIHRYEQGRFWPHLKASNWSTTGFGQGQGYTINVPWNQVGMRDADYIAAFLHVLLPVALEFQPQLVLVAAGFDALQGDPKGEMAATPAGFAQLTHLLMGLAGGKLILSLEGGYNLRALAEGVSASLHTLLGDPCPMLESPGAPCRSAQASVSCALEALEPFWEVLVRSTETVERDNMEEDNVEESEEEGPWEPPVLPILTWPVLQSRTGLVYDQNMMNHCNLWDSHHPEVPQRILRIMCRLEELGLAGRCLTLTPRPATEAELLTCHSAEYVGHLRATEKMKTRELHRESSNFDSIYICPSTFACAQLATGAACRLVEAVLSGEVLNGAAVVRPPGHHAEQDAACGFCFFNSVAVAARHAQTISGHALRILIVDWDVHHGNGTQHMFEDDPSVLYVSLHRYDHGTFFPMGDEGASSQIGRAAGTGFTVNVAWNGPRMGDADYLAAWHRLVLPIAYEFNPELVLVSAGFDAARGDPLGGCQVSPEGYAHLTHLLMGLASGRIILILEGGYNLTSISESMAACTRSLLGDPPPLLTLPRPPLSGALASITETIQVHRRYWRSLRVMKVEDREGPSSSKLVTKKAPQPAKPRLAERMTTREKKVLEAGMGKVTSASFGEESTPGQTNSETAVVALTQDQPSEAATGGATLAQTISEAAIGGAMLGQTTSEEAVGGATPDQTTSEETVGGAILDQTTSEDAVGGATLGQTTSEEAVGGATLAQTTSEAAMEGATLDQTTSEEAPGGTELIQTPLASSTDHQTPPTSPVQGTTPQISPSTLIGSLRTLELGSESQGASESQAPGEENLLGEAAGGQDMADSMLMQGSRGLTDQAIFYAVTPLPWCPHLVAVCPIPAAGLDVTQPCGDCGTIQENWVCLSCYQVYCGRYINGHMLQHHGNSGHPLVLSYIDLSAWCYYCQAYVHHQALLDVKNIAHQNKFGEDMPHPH
Kind of assay: HDAC6 enzyme activity inhibition (HDAC Fluorimetric Drug Discovery Kit). It is filed as biochemical. The essentials: as §1

[1] abbreviates: human recombinant HDAC1, IC50 calculated with GraphPad Prism.
The mark [2] stands for this setting: human recombinant HDAC6, IC50 calculated with GraphPad Prism.
[3] abbreviates: human recombinant HDAC1, Fluor de Lys substrate, 30° C. 60 minutes.
Setting [4] is: human recombinant HDAC6, same protocol as HDAC1.

Like-named read-outs stand apart in the source and are kept apart here.

T1 sequence (Q13547 whole entry): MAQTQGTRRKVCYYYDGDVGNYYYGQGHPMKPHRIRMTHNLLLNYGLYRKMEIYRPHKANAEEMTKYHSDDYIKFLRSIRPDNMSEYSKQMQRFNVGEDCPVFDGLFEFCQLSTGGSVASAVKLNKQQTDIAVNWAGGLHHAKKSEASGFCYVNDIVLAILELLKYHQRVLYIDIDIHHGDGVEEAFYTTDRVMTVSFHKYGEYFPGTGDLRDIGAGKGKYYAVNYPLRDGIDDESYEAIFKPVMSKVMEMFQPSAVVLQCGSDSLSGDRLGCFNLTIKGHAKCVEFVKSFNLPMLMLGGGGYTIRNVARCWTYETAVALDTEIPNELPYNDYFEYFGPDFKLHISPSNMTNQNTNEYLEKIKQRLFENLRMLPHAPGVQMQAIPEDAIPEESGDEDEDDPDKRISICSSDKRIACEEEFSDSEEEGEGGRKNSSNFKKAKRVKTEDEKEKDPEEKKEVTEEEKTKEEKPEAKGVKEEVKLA

In the case of `CC(C)N1C[C@@H]2C[C@H]1CN2c1cccc(-c2cn(Cc3ccc(-c4nnc(C(F)F)o4)cc3)nn2)c1` [Compound 4321, 2-(difluoromethyl)-5-(4-((4-(3-((1S, 4S)-5-isopropyl-2,5-diazabicyclo[2.2.1]heptan-2-yl)phenyl)-1H-1,2,3-triazol-1-yl)methyl)phenyl)-1,3,4-oxadiazole], the values for the IC50 on human recombinant HDAC1 (setting [1]) and on human recombinant HDAC6 (setting [2]) were above 50000 nM and 111 nM, respectively. In addition, the “HDAC6 selectivity (fold)” value on human recombinant HDAC6 (HDAC1 IC50 / HDAC6 IC50) turned out to be 434 fold.
For `CCCc1cn(Cc2ccc(-c3nnc(C(F)F)o3)cn2)nn1` [Compound 3831, 2-(difluoromethyl)-5-(6-((4-propyl-1H-1,2,3-triazol-l-yl)methyl)pyridin-3-yl)-1,3,4-oxadiazole] the same measures were above 50000 nM, 145 nM and 343 fold.
As for `Fc1cc(-c2nnc(C(F)F)o2)ccc1Cn1cc(-c2ccccn2)nn1` [Compound 18256, 2-(difluoromethyl)-5-(3-fluoro-4-((4-(pyridin-2-yl)-1H-1,2,3-triazol-1-yl)methyl)phenyl)-1,3,4-oxadiazole], the IC50 was above 50000 nM at human recombinant HDAC1 (setting [3]) and 43.7 nM at human recombinant HDAC6 (setting [4]). Also, the “HDAC6 selectivity (fold)” value at human recombinant HDAC6 (HDAC6 over HDAC1) stood at 1144 fold.
Regarding `FC(F)c1cccc(-c2cn(Cc3ccc(-c4nnc(C(F)F)o4)cn3)nn2)c1` [Compound 4489, 2-(difluoromethyl)-5-(6-((4-(3-(difluoromethyl)phenyl)-1H-1,2,3-triazol-1-yl)methyl)pyridin-3-yl)-1,3,4-oxadiazole], the IC50 at human recombinant HDAC1 (setting [1]) is above 50000 nM; at human recombinant HDAC6 (setting [2]), 14.7 nM. Moreover, at human recombinant HDAC6 (HDAC1 IC50 / HDAC6 IC50), the “HDAC6 selectivity (fold)” value was 3401 fold.
As to `CCN1CC(c2cccc(-c3cn(Cc4ccc(-c5nnc(C(F)F)o5)cc4)nn3)c2)C1` [Compound 4508, 2-(difluoromethyl)-5-(4-((4-(3-(1-ethylazetidin-3-yl)phenyl)-1H-1,2,3-triazol-1-yl)methyl)phenyl)-1,3,4-oxadiazole], the IC50 is above 50000 nM at human recombinant HDAC1 (setting [3]) and 36.2 nM at human recombinant HDAC6 (setting [4]). In addition, the “HDAC6 selectivity (fold)” value on human recombinant HDAC6 (HDAC6 over HDAC1) was found to be 1381 fold.
As to `CN1CCN(c2ccc(F)c(-c3cn(Cc4ccc(-c5nnc(C(F)F)o5)cc4)nn3)c2)CC1` [Compound 4451, 2-(difluoromethyl)-5-(4-((4-(2-fluoro-5-(4-methylpiperazin-1-yl)phenyl)-1H-1,2,3-triazol-1-yl)methyl)phenyl)-1,3,4-oxadiazole], the figures for the IC50 at human recombinant HDAC1 (setting [1]) and at human recombinant HDAC6 (setting [2]) were above 50000 nM and 16.8 nM, respectively. Besides, at human recombinant HDAC6 (HDAC1 IC50 / HDAC6 IC50), the “HDAC6 selectivity (fold)” value turned out to be 1976 fold.
`Fc1cc(-c2nnc(C(F)F)o2)cnc1Cn1cc(-c2ccc(CN3CCCC3)c(Cl)c2)nn1` [Compound 19096]: the IC50 on human recombinant HDAC1 (setting [3]) was above 50000 nM; at human recombinant HDAC6 (setting [4]), 94.4 nM. For the same compound, the “HDAC6 selectivity (fold)” value at human recombinant HDAC6 (HDAC6 over HDAC1) turned out to be 529 fold.
`CC(=O)N1CCC(Nc2ccc(F)c(-c3cn(Cc4ccc(-c5nnc(C(F)F)o5)cc4F)nn3)c2)CC1` [Compound 4437, 1-(4-((3-(1-(4-(5-(difluoromethyl)-1,3,4-oxadiazol-2-yl)-2-fluorobenzyl)-1H-1,2,3-triazol-4-yl)-4-fluorophenyl)amino)piperidin-1-yl)ethan-1-one]: the IC50 on human recombinant HDAC1 (setting [1]) is above 50000 nM; on human recombinant HDAC6 (setting [2]), 83.3 nM. In addition, the “HDAC6 selectivity (fold)” value at human recombinant HDAC6 (HDAC1 IC50 / HDAC6 IC50) is reported as 600 fold.
As for `Fc1cc(-c2nnc(C(F)F)o2)ccc1Cn1cc(-c2cncc(Br)c2)nn1` [Compound 16930, 2-(4-((4-(5-bromopyridin-3-yl)-1H-1,2,3-triazol-1-yl)methyl)-3-fluorophenyl)-5-(difluoromethyl)-1,3,4-oxadiazole], the IC50 on human recombinant HDAC1 (setting [3]) is above 50000 nM; on human recombinant HDAC6 (setting [4]), 47.9 nM. For the same compound, the “HDAC6 selectivity (fold)” value on human recombinant HDAC6 (HDAC6 over HDAC1) was determined as 1043 fold.
`CN1CCN(C(=O)c2cccc(-c3cn(Cc4ccc(-c5nnc(C(F)F)o5)cn4)nn3)c2)CC1` [Compound 3887, (3-(1-((5-(5-(difluoromethyl)-1,3,4-oxadiazol-2-yl)pyridin-2-yl)methyl)-1H-1,2,3-triazol-4-yl)phenyl)(4-methylpiperazin-1-yl)methanone]: the IC50 at human recombinant HDAC1 (setting [1]) is above 50000 nM; on human recombinant HDAC6 (setting [2]) it was 57.1 nM. Moreover, the “HDAC6 selectivity (fold)” value at human recombinant HDAC6 (HDAC1 IC50 / HDAC6 IC50) is 875 fold.
With `CN1CCN(c2ccc(-c3cn(Cc4ccc(-c5nnc(C(F)F)o5)cc4F)nn3)cn2)CC1` [Compound 16789, 2-(difluoromethyl)-5-(3-fluoro-4-((4-(6-(4-methylpiperazin-1-yl)pyridin-3-yl)-1H-1,2,3-triazol-1-yl)methyl)phenyl)-1,3,4-oxadiazole], the figures for the IC50 at human recombinant HDAC1 (setting [3]) and at human recombinant HDAC6 (setting [4]) were above 50000 nM and 79.5 nM, respectively. Besides, at human recombinant HDAC6 (HDAC6 over HDAC1), the “HDAC6 selectivity (fold)” value is 628 fold.
With `FC(F)c1nnc(-c2ccc(Cn3cc(-c4ccc(N5CCOCC5)cc4)nn3)nc2)o1` [Compound 4105, 4-(4-(1-((5-(5-(difluoromethyl)-1,3,4-oxadiazol-2-yl)pyridin-2-yl)methyl)-1H-1,2,3-triazol-4-yl)phenyl)morpholin], the IC50 at human recombinant HDAC1 (setting [1]) was 34000 nM; at human recombinant HDAC6 (setting [2]) it was 34.7 nM. Further, the “HDAC6 selectivity (fold)” value at human recombinant HDAC6 (HDAC1 IC50 / HDAC6 IC50) turned out to be 979 fold.
With `Fc1cc(-c2nnc(C(F)F)o2)ccc1Cn1cc(-c2cccc(N3CCN(C4COC4)CC3)n2)nn1` [Compound 17365, 2-(difluoromethyl)-5-(3-fluoro-4-((4-(6-(4-(oxetan-3-yl)piperazin-1-yl)pyridin-2-yl)-1H-1,2,3-triazol-1-yl)methyl)phenyl)-1,3,4-oxadiazole], the IC50 on human recombinant HDAC1 (setting [3]) is above 50000 nM; at human recombinant HDAC6 (setting [4]), 36.3 nM. Further, the “HDAC6 selectivity (fold)” value at human recombinant HDAC6 (HDAC6 over HDAC1) was 1377 fold.
On to `FC(F)c1nnc(-c2ccc(Cn3cc(-c4ccc5sccc5c4)nn3)nc2)o1` [Compound 4074, 2-(6-((4-(benzo[b]thiophen-5-yl)-1H-1,2,3-triazol-1-yl)methyl)pyridin-3-yl)-5-(difluoromethyl)-1,3,4-oxadiazole], for which the IC50 is above 50000 nM at human recombinant HDAC1 (setting [1]) and 83 nM on human recombinant HDAC6 (setting [2]). Further, the “HDAC6 selectivity (fold)” value on human recombinant HDAC6 (HDAC1 IC50 / HDAC6 IC50) stood at 602 fold.
Consider `CN1CCC(c2cccc(-c3cn(Cc4ccc(-c5nnc(C(F)F)o5)cc4F)nn3)c2)CC1` [Compound 4290, 2-(difluoromethyl)-5-(3-fluoro-4-((4-(3-(1-methylpiperidin-4-yl)phenyl)-1H-1,2,3-triazol-1-yl)methyl)phenyl)-1,3,4-oxadiazole], for which the IC50 on human recombinant HDAC1 (setting [1]) was above 50000 nM; on human recombinant HDAC6 (setting [2]), 55 nM. In addition, at human recombinant HDAC6 (HDAC1 IC50 / HDAC6 IC50), the “HDAC6 selectivity (fold)” value is reported as 909 fold.
With `Fc1cc(-c2nnc(C(F)F)o2)ccc1Cn1cc(-c2cccc3c2CN(C2CCC2)C3)nn1` [Compound 4537, 2-(4-((4-(2-cyclobutylisoindolin-4-yl)-1H-1,2,3-triazol-1-yl)methyl)-3-fluorophenyl)-5-(difluoromethyl)-1,3,4-oxadiazole], the IC50 is above 50000 nM at human recombinant HDAC1 (setting [3]) and 76 nM on human recombinant HDAC6 (setting [4]). For the same compound, at human recombinant HDAC6 (HDAC6 over HDAC1), the “HDAC6 selectivity (fold)” value is on record as 657 fold.
The like results for `Fc1cc(-c2nnc(C(F)F)o2)ccc1Cn1cc(-c2csc(CN3CC[C@@H](F)C3)c2)nn1` [Compound 18180, (R)-2-(difluoromethyl)-5-(3-fluoro-4-((4-(5-((3-fluoropyrrolidin-1-yl)methyl)thiophen-3-yl)-1H-1,2,3-triazol-1-yl)methyl)phenyl)-1,3,4-oxadiazole] were, in that order, above 50000 nM, 74.3 nM and 672 fold.
Consider `CC(C)(C)OC(=O)N1CCC(Cc2cn(Cc3ccc(-c4nnc(C(F)F)o4)cn3)nn2)CC1` [Compound 4000, Tert-butyl 4-((1-((5-(5-(difluoromethyl)-1,3,4-oxadiazol-2-yl)pyridin-2-yl)methyl)-1H-1,2,3-triazol-4-yl)methyl)piperidin-1-carboxylate], for which the IC50 at human recombinant HDAC1 (setting [1]) is above 50000 nM; on human recombinant HDAC6 (setting [2]), 343 nM. The “HDAC6 selectivity (fold)” value at human recombinant HDAC6 (HDAC1 IC50 / HDAC6 IC50) worked out at 145 fold.
With `Cc1cnc(-c2cn(Cc3ccc(-c4nnc(C(F)F)o4)cc3F)nn2)s1` [Compound 17857, 2-(difluoromethyl)-5-(3-fluoro-4-((4-(5-methylthiazol-2-yl)-1H-1,2,3-triazol-1-yl)methyl)phenyl)-1,3,4-oxadiazole], the IC50 on human recombinant HDAC1 (setting [3]) is above 50000 nM; on human recombinant HDAC6 (setting [4]) it was 61.8 nM. For the same compound, the “HDAC6 selectivity (fold)” value at human recombinant HDAC6 (HDAC6 over HDAC1) was determined as 809 fold.

The record behind these values is patent US20230257372A1 (CHONG KUN DANG PHARMACEUTICAL CORP., priority 2020, published 2023).
